Experimental data: ChEMBL document CHEMBL1128917, “1-O-, 2-O- and 3-O--glycosyl-sn-glycerols: Structure - anti-tumor-promoting activity relationship” (1996)

Columns and labels:
Format in all cases: functional, Homo sapiens
[1] = test system: Raji; assay: Tested in vitro for inhibitory activity against TPA induced Epstein-Barr virus antigen activation in Raji cells (100 mol) for positive control
[2] = test system: Raji; assay: Tested in vitro for inhibitory activity against TPA induced Epstein-Barr virus antigen activation in Raji cells (10 mol) for positive control
[3] = test system: Raji; assay: Tested in vitro for inhibitory activity against TPA induced Epstein-Barr virus antigen activation in Raji cells (1000 mol) for positive control
[4] = test system: Raji; assay: Tested in vitro for inhibitory activity against TPA induced Epstein-Barr virus antigen activation in Raji cells (500 mol) for positive control
[5] = test system: Raji; assay: Tested in vitro for inhibitory activity against TPA induced Epstein-Barr virus antigen activation in Raji cells (1000 mol) for viability

Structure (SMILES)	EBV antigen activation, % of positive control [1]	EBV antigen activation, % of positive control [2]	EBV antigen activation, % of positive control [3]	EBV-EA activation (% of positive control) [4]	Viability [5]
CO[C@@H]1O[C@H](CO)[C@H](O)[C@H](O)[C@H]1O	76.5%	93.7%	20.3%	43.9%	80%
CO[C@@H]1O[C@H](CO)C(O)C(O)[C@H]1O (single isomer, unassigned)	70.7%	100%	22.8%	54.1%	70%
OCC(O)CO[C@@H]1O[C@@H](CO)[C@@H](O)[C@H](O)[C@@H]1O (stereo in doubt; form 1)	62.4%	82.5%	0%	20.7%	70%
CC(=O)OCC(CO)O[C@@H]1O[C@@H](CO)[C@@H](O)[C@H](O)[C@@H]1O (stereo in doubt; form 1)	71.5%	94.7%	–	32.9%	–
OCC(CO)O[C@@H]1O[C@@H](CO)[C@H](O)[C@H](O)[C@@H]1O (stereo in doubt; form 1)	81%	–	–	45.8%	70%
OCC(O)CO[C@@H]1O[C@@H](CO)[C@H](O)[C@H](O)[C@@H]1O (stereo in doubt; form 1)	58.2%	79.1%	–	16.5%	–
OCC(O)CO[C@@H]1O[C@@H](CO)[C@@H](O)[C@H](O)[C@@H]1O (stereo in doubt; form 2)	68.9%	90.4%	–	27.4%	–
CC(=O)OCC(CO)O[C@@H]1O[C@@H](CO)[C@@H](O)[C@H](O)[C@@H]1O (stereo in doubt; form 2)	77.3%	100%	0%	36.6%	70%
OCC(CO)O[C@@H]1O[C@@H](CO)[C@H](O)[C@H](O)[C@@H]1O (stereo in doubt; form 2)	88.1%	100%	0%	17.5%	80%
OCC(O)CO[C@@H]1O[C@@H](CO)[C@H](O)[C@H](O)[C@@H]1O (stereo in doubt; form 2)	64.6%	87.5%	0%	25.8%	70%
